Experiments:
phospho-CREB (pCREB) = assay: Human whole blood phospho-CREB (pCREB) assay / modulation of pCREB in human immune cells; assay type: cell-based; conditions: agonist (NECA or CGS-21680)-stimulated human blood cells
Protocol: Fresh human blood samples are derived from healthy volunteers and processed in heparin tubes. 67.5 ul of whole blood is aliquoted to each well in a 96-well plate and incubated at 37° C. for 30 min. Testing compounds are diluted with DMSO to make 8-point 3-fold serial dilution and 3.5 ul (20×) is added to each well. Cells are incubated with the compounds at 37° C. for 30 min. NECA (5 uM) is then added to each well and cells are incubated for 30 min at 37° C. Following the stimulation, cells are transferred to a 96-well deep well plates and fixed with 1 ml/well of lyse/fix buffer (1×) (BD Biosciences #558049) with vigorous shake at 37° C. for 10 min. Cells are centrifuged at 600 g for 6 min and washed twice with PBS, followed by addition of 800 ul/well Perm buffer III (BD Biosciences #558050). Cells are then pelleted at 600 g for 6 min, washed with FACS buffer (PBS+0.2% BSA+1 mM EDTA) and stained for 40 min at room temperature in the dark with an antibody cocktail containing PE mouse anti-human CD3 (BD Biosciences #555333, 1 ul/well), FITC mouse anti-human CD4 (BD Biosciences #5555346, 1 ul/well), PerCP-Cy™5.5 mouse anti-human CD8 (BD Biosciences #565310, 1 ul/well) and phospho-CREB (Ser133) (87G3) Rabbit mAb (Alexa Fluor® 647 Conjugate, CST #14001, 0.5 ul/well). Cells are then washed twice with FACS buffer and acquired on a flow cytometer (Sony Cell Sorter SH800). Data were analyzed using FlowJo version 9. The level of CREB phosphorylation from unstimulated cells (Low control: LC) and NECA-stimulated cells (High control: HC) are determined as mean fluorescent intensity (MFI) in stimulated condition/mean fluorescent intensity in unstimulated condition. % Inhibition is calculated as (MFI of HC-MFI of assay well)/(MFI of HC-MFI of LC)×100%. Data are analyzed and IC50s calculated using GraphPad Prism 5 and the model “log(inhibitor) vs. response—Variable slope”.
The A2A receptor is known to mediate CREB phosphorylation.
Venous blood from healthy volunteers, all of whom signed an informed consent approved by the Ethics Committee (FOR—UIC-BV-050-01-01 ICF HBS HD Version 5.0), was obtained via ImmuneHealth (Centre Hospitalier Universitaire Tivoli, La Louviere,
15 Belgium). Peripheral blood cells were treated with A2AR agonists CGS-21680 or NECA (Sigma-Aldrich, Diegem, Belgium), and a serial dilution of compounds disclosed herein (all used stock solutions at 10 mM in DMSO). All dilutions were prepared in RPMI1640 medium (with UltraGlutamine; Lonza, Venders, Belgium), and cells were incubated with compounds in a 37° C. humidified tissue culture incubator with 5% CO2.
After stimulation, cells were fixed and permeabilized, followed by intracellular staining using mouse anti-human pCREB antibodies (Clone J151-21; BD Biosciences) at room temperature. Data were acquired using an LSRFortessa flow cytometer (BD Biosciences) and analyzed using FlowJo software (FlowJo, LLC, Ashland, Oregon).

human A2B AdoR = biological target: T1, human A2B AdoR (Homo sapiens, UniProt P29275); assay: Adenosine receptor binding assay, A2B ([3H]-DPCPX); conditions: ratio A2B vs A2A binding
T1 construct: purchased PerkinElmer ES-013-M400UA
T1 sequence (P29275 1-332): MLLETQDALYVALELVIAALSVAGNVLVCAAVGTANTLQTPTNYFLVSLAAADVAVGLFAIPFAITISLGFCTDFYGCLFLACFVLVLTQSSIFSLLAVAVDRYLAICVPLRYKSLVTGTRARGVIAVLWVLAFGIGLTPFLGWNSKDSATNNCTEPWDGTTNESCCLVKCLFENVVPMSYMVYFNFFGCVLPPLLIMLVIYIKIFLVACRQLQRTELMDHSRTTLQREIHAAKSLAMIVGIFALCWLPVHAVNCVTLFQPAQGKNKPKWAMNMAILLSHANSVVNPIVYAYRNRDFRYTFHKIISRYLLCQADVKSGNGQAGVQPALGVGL
Protocol: Membranes prepared from CHO-K1 cells stably expressing Human AiAdoR (ES-010-M400UA), HEK-293 cells stably expressing human A2A AdoR (RBHA2AM400UA), HEK-293 cells stably expressing human A2B AdoR (ES-013-M400UA) and CHO-K1 cells stably expressing Human A3 AdoR (ES-012-M400UA) were purchased from PerkinElmer (Waltham, Mass., USA) and stored at −80° C. until use. Binding assays are performed using the radioligands. The final concentrations are as follows: [3H]-DPCPX (PerkinElmer, NET974001MC) at 1 nM for A1AdoR; [^3H]-CGS-21680 (PerkinElmer, NET1021250UC) at 6 nM for A2AAdoR, [3H]-DPCPX (PerkinElmer, NET974001MC) at 8 nM for A2BAdoR; [^3H]-HEMADO (ARC, Cat: ART1456) at 1 nM for A3AdoR. Testing compounds are diluted with DMSO to make 8-point 4-fold serial dilution. Nonspecific binding (Low control: LC) and total binding (High control: HC) are determined in the presence or absence of saturated cold ligand. Specific binding is calculated by subtracting nonspecific binding from total binding. All assays are performed in a final volume of 200 μl containing 1 μl of the test compound in DMSO, 100 μl of membrane preparation, and 99 μl of the radioligand in assay buffer (A1AdoR: 25 mM HEPES pH 7.4, 5 mM MgCl2, 1 mM CaCl2), 100 mM NaCl; A2AAdoR: 50 mM Tris HCl pH 7.4, 10 mM MgCl2, 1 mM EDTA; A2BAdoR: 50 mM HEPES pH 7.0, 5 mM MgCl2, 1 mM EDTA; A3AdoR: 25 HEPES pH 7.4, 10 mM MgCl2, 1 mM CaCl2), 0.5% BSA). The incubation is performed at room temperature with shaking at 300 rpm for 1 hour for A1AdoR, A2BAdoR and A3AdoR and 2 hours for A2AAdoR. After the incubation, the assay mixture is filtered through 96 GF/C filter plates (Perkin Elmer #6005174) using Perkin Elmer Filtermate Harvester, and then washed four times with ice-cold washing buffer (A1AdoR: 25 mM HEPES pH 7.4, 5 mM MgCl2, 1 mM CaCl2), 100 mM NaCl; A2AAdoR: 50 mM Tris HCl pH 7.4, 154 mM NaCl; A2BAdoR: 50 mM HEPES pH 6.5, 5 mM MgCl2, 1 mM EDTA, 0.2% BSA; A3AdoR: 50 mM Tris HCl pH 7.4). The filters are dried for 1 hour at 50° C. and [^3H] trapped on filter counted for radioactivity in Perkin Elmer Microscint 20 cocktail (#6013329) using Perkin Elmer MicroBeta2 Reader. The results are expressed as a percent inhibition of the control radioligand specific binding calculated using the following equation: % Inhibition=(1−(Assay well-Average_LC)/(Average_HC−Average_LC))×100%. Data are analyzed and IC50 is calculated using GraphPad Prism 5 and the model “log(inhibitor) vs. response—Variable slope”. The binding affinity of the compounds is determined by using the Cheng and Prusoff equation Ki=IC50/(1+[radioligand]/Kd).

human A2A AdoR = biological target: T2, human A2A AdoR (Homo sapiens, UniProt P29274); assay: Adenosine receptor binding assay, A2A ([3H]-CGS-21680); conditions: membranes of HEK-293 cells expressing human A2A AdoR; read-out: hA2A IC50
T2 construct: purchased PerkinElmer RBHA2AM400UA
Summary of the method: (§1)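 Filtration binding on membranes: A2A in HEK-293 with 6 nM [3H]-CGS-21680, Tris pH 7.4, 2 h; A2B in HEK-293 with 8 nM [3H]-DPCPX, HEPES pH 7.0, 1 h; A1 in CHO-K1 with 1 nM [3H]-DPCPX, HEPES pH 7.4, 1 h; room temperature. 8-point dilutions; IC50 converted to Ki (Cheng–Prusoff).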

A1AdoR = biological target: T3, A1AdoR (Homo sapiens, UniProt P30542); assay: Adenosine receptor binding assay, A1 ([3H]-DPCPX); conditions: ratio A1 vs A2A binding
T3 construct: purchased PerkinElmer ES-010-M400UA
T3 sequence (P30542 1-326): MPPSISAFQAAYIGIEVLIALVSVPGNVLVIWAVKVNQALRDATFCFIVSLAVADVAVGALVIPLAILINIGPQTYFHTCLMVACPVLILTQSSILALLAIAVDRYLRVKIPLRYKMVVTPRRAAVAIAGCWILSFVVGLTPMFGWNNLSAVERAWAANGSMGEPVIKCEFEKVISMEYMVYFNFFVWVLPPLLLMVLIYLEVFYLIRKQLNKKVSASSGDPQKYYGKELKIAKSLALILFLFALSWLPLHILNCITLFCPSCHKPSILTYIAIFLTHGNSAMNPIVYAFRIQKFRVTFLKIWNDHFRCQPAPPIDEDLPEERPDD
Summary of the method: as §1

T2 sequence (P29274 whole entry): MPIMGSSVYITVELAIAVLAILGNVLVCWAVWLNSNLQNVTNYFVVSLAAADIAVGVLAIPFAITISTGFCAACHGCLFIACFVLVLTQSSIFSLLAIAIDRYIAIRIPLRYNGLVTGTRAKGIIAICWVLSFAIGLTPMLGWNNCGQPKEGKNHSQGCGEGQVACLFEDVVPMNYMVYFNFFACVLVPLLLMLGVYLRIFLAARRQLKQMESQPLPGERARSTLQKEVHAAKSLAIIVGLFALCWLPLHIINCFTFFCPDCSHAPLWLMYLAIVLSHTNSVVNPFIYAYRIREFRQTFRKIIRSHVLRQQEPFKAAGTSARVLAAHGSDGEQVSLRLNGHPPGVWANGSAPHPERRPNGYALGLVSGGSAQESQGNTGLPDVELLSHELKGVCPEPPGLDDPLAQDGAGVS

- EC50 (phospho-CREB (pCREB)): 20 to 100 nM
- A2B/A2A Selectivity (human A2B AdoR): a (greater than 1000)
- IC50 (human A2A AdoR): ≤ 20 nM
SMILES: NC(=O)c1cc2c(nc(N)n3nc(-c4ccccn4)nc23)n1CCN1CCN(c2ccc(OCC(=O)O)cc2)CC1
- A1/A2A Selectivity (A1AdoR): b (greater than 100 but less than or equal to 1000)

Reference: patent US20230024108A1, “ADENOSINE A2A RECEPTOR ANTAGONISTS” (Teon Therapeutics, Inc., priority 2019, published 2023)
